Consider one compound from patent publication US20090029943A1, “Glucosamine and Derivatives Thereof Useful as TG Inhibitors” (priority 2005, published 2009).

Assay [1] concerns iNOS (NF-kB-inducible) in LPS-activated BV2 microglia. The experiment in a line: iNOS Western blotting in LPS-activated BV2 microglia cells. Type of assay: cell-based, murine. To be noted: LPS 100 ng/ml 24 hrs; glucosamine 1, 10 or 100 mM; FIG. 3A. On the procedure: The inhibitory effects of glucosamine on transglutaminase were determined by monitoring the activity of the transcriptional factor NF-kB through the measurement of level of NF-kB-inducible iNOS.
The cells were maintained in DMEM (Dulbecco's Modified Eagle's medium) (Invitrogen) supplemented with 10% fetal bovine serum and penicillin/streptomycin in a 5% CO2, 37° C. incubator. BV-2 was activated by treatment with LPS (100 ng/ml; Sigma) for 24 hrs.
In order to detect the intracellular activity of transglutaminase, the cells were incubated for 24 hrs in a medium supplemented with 4.5 nmoles of ^14C-putrescine (1.11×10^6 dpm)/ml. Cells were grouped according to treatment without or with 1, 10 or 100 mM of glucosamine. Following LPS treatment for 24 hrs, cells in each group were homogenized with a radioimmunoprecipitation assay buffer (1×PBS, 1% Nonidet P-40, 0.5% sodium deoxycholate and 0.1% SDS) containing a protease inhibitor. The homogenates were centrifuged at 100,000×g for 1 hr. and the supernatants were subjected to iNOS Western blotting.
After being separated from a 10˜20% gradient SDS gel using Tricine buffer (Invitrogen), the Western blotting samples were transferred onto polyvinylidene difluoride membrane (Invitrogen). Western blotting was conducted as usual. […]

Assay [2] deals with T1, purified transglutaminase enzyme (Sigma T5398) (UniProt P08587).
T1 construct: purchased Sigma T5398
T1 sequence (P08587 1-690): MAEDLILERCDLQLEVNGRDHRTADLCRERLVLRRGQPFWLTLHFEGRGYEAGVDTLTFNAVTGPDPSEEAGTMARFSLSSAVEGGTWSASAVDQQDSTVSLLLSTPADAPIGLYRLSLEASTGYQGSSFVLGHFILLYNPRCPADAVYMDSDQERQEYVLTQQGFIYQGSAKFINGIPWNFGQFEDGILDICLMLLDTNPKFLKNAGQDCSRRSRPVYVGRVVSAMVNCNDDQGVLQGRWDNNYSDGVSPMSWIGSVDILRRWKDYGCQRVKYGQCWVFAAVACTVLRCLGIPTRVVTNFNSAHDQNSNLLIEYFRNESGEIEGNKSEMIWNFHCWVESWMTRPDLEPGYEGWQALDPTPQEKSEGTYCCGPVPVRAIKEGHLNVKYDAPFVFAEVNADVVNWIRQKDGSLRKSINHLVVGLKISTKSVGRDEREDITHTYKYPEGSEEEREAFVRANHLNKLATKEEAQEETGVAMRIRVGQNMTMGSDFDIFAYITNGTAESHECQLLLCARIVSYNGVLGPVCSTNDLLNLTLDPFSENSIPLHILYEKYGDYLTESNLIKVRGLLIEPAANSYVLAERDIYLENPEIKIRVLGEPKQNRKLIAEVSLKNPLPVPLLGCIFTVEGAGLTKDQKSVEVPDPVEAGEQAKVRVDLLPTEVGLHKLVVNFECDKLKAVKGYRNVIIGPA
The experiment in a line: In vitro assay for inhibition of transglutaminase activity (14C-putrescine incorporation into succinylated casein). Type of assay: biochemical. The following applies: glucosamine 1, or 100 mM; 37° C., 1 hour; FIG. 2. On the procedure: Consequently, glucosamine and derivatives thereof are transglutaminase inhibitors.
In the presence of various concentrations of […], which competes with putrescine, the reaction between [1,4-^14C] putrescine and succinylated casein, catalyzed by transglutaminase, was observed.
A reaction buffer (0.5 ml) was prepared as follows: 0.1 M triacetate pH 7.5, 1% succinylated casein, 1 mM EDTA, 10 mM CaCl2, 0.5% lubrol PX, 5 mM DTT, 0.15 M NaCl and 0.5 mCi [1,4-^14C] putrescine (Dupont-New England Nuclear; 118 Ci/mole). To this reaction buffer were added 2 μl of a purified transglutaminase enzyme (Sigma T5398), glucosamine and a 50 mM Tris-acetate buffer so as to yield a final volume of 100 μl, having a glucosamine concentration of 1, or 100 mM. Mixing was followed by reaction at 37° C. for 1 hour before termination with 4.5 ml of cold (4° C.) 7.5% TCA. The TCA-precipitates thus formed were filtered through a GF/glass fiber filter, washed with 10 volumes of 5% TCA and dried, followed by measuring transglutaminase-catalyzed ^14C-putrescine-labelled casein with a β-counter.
The relative inhibition activities (%) of glucosamine against transglutaminase are depicted in FIG. 2.

The subject of assay [3] is transglutaminase in SH-SY5Y/TG cells (I-κBα level). The experiment in a line: I-κBα Western blotting in SH-SY5Y/TG neuroblastoma cells. Type of assay: cell-based, human. To be noted: 10 mM glucosamine, 3 hrs, cytosol fraction; FIG. 4A. On the procedure: For use in the transfection of transglutaminase, the human neuroblastoma cell SH-SY5Y was purchased from American Type Culture Collection. SH-SY5Y was cultured in DMEM (Dulbecco's modified Eagle's Medium)/Ham F12 medium (50:50) supplemented with 10% heat-inactivated fetal bovine serum, glutamine, and penicillin/streptomycin. In order to avoid clonal mutation, an Flp-In™ system (Invitrogen, Co) was introduced. SH-SY5Y transformed with a mock vector was used as a […] (Wild) while a full-length transglutaminase gene was cloned in a pcDNA5/FRT vector to prepare SH-SY5Y/TG. Allowing NF-kB to be usually active therein (J. Biol. Chem. 279, 53725-53735, 2004), the strain thus constructed is widely used as an NF-kB activation model based on the overexpression of transglutaminase. […] The inhibitory effects of putative transglutaminase inhibitors were investigated by incubating SH-SY5Y/TG cells in the presence of 10 mM glucosamine (GM), 200 μM cystamine (CTM), and 2 nM iodoacetamide (IAA) for 3 hrs, followed by obtaining cytosol fractions with the aid of a nuclear extraction kit (Sigma) from the cells. As a negative control, a cytosol fraction obtained from a cell culture incubated in the absence of any transglutaminase inhibitor was used (Ct). […]
In general terms: A western blot detects proteins with antibodies after separation by electrophoresis.

The target in assay [4] is T2, transglutaminase in LPS-activated microglia cells (Mus musculus, UniProt P21981).
T2 construct: In order to detect the intracellular activity of transglutaminase, the cells were incubated for 24 hrs; endogenous in cells
T2 sequence (P21981 1-686): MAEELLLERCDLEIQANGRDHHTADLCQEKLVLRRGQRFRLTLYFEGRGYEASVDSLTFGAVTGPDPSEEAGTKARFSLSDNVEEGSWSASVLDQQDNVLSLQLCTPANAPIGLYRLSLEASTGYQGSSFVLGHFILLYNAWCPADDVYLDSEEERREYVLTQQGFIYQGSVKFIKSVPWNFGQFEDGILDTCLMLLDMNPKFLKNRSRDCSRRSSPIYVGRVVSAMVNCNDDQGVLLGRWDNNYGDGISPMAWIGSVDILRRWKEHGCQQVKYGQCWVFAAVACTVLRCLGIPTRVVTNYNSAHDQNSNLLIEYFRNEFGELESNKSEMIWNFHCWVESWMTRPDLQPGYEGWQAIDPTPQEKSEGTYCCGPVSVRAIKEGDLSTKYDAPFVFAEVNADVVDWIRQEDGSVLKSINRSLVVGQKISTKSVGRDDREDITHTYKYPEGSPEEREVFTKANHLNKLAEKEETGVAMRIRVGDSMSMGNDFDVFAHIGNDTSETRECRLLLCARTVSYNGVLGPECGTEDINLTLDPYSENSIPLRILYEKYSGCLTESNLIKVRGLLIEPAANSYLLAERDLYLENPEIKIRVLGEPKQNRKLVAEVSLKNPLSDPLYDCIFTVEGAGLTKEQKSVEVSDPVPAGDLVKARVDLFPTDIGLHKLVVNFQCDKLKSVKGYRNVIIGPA
The experiment in a line: Intracellular transglutaminase activity in LPS-activated BV2 microglia (14C-putrescine incorporation). To be noted: LPS 24 hrs; glucosamine 1, 10 or 100 mM; FIG. 3B. The format is cell-based, murine.

Molecules are shown by their SMILES. Entries after “also recorded” stand apart in the source; their conditions may differ.

On to `N[C@H]1C(O)O[C@H](CO)[C@@H](O)[C@@H]1O` (stereo partly shown) [glucosamine], for which the “level of expression of iNOS” value in assay [1] is “reduces the level of expression of iNOS”. Also, the “activity of transglutaminase (relative inhibition activity)” value in assay [2] is listed as “poorer activity of transglutaminase; also recorded: inhibited in a glucosamine dose-dependent manner”. Besides, in assay [3], the “transglutaminase inhibition shown by level of expression of I-κBα” value is “identified as a transglutaminase inhibitor”. For the same compound, the “activity of transglutaminase in LPS-activated microglia” value in assay [4] was “inhibited in a glucosamine dose-dependent manner”.
